Data on eleven compounds can be found in patent US20220017541A1, “INHIBITORS OF ARGINASE” (Black Belt Tx Ltd, priority 2018, published 2022).

One test addresses T1, recombinant human ARG2 (Homo sapiens, UniProt P78540).
T1 construct: purchased BPS Bioscience 71659
T1 sequence (P78540 23-354): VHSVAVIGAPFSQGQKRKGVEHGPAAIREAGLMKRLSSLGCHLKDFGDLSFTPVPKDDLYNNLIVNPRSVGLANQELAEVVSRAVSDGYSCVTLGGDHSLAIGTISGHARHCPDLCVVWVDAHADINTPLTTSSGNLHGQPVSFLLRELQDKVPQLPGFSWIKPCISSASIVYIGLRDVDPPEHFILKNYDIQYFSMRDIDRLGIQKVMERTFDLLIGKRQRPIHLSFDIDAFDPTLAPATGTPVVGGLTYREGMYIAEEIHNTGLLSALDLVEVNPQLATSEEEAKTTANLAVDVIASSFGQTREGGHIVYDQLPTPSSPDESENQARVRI
Put plainly: Arginase enzymatic assay in vitro, recombinant human ARG2 (colorimetric urea detection). Type of test: biochemical. The note with it: recombinant human arginase 2; read-out: IC50 Inh rhARG2. The source says: (§1) Arginase catalyzes the hydrolysis of L-arginine into L-ornithine and urea. Urea amount produced by this reaction can be detected using a colorimetric assay and used as an indirect measurement of arginase activity. An adapted protocol from (Baggio, R., et al., J Pharmacol Exp Ther, 1999. 290(3): p. 1409-16) was used for the testing the ability of exemplary compounds of the invention to inhibit arginase enzymes from a variety of sources including recombinant human ARG1 and 2, lysates of human red blood cells (RBC) and intact murine macrophages, as described below.
(§2) Compounds of the invention were prepared from powder as 10 mM stock solutions in DMSO and stored in presence of N2 neutral atmosphere at −80° C. For IC50 determination and just before the assay, exemplary compounds were successively diluted to get the following concentrations: 210, 70, 21, 7, 2.1, 0.7, 0.21, 0.07, 0.021, 0.007, 0.0021 and 0.0007 μM (i.e., final concentrations in the wells of 30, 10, 3, 1, 0.3, 0.1, 0.03, 0.01, 0.003, 0.001, 0.0003, 0.0001 μM).
(§3) Assays were run in clear flat bottom 96-well plates (Nunclon, Cat. No. #167008) adding in each well the following solutions in this order: (1) 10 μl of Tris-HCl solution supplemented with 0.1% bovine serum albumin (BSA) containing 1.563 μg/ml recombinant human ARG1 (R&D System, Cat. No. #5868-AR-010), (2) 30 μl of Tris-HCl buffer containing 10 mM MnCl2 and (3) 10 μL of a pre-dilution of each test article or DMSO (vehicle). Compounds were allowed to interact with the enzyme-cofactor complex pre-incubating the plate at 37° C. for 30 min. To start the reaction, 20 μl of 50 mM L-arginine (Sigma Aldrich Cat. #A5006-100G) were added to each well in exception of the blank reaction (see below). All reactions were allowed to happen for 1 h at 37° C. To detect the urea production, reactions were stopped by adding 200 μl of a mixture of reagent A (4 mM o-phthalaldehyde in 50 mM Boric Acid, 1 M Sulfuric Acid, 0.03% Brij-35 (w/v)) and reagent B (4 mM N-(1-naphthyl)ethylenediamine in 50 mM Boric Acid, 1 M Sulfuric Acid, 0.03% Brij-35 (w/v)) in equal proportion. Color product was developed for 1 h at room temperature (RT) protected from light and then absorbance at 520 nm was measured using a Multifunction Microplate Reader (Synergy 4, Bioteck). Blank reactions were carried out by adding the L-arginine substrate only after the addition of mixture A-B. All reactions were carried out in duplicates.
(§4) The inhibition of urea production was calculated subtracting the absorbance from the blank reaction (zero enzymatic urea production) to the absorbance from all reactions and it was expressed as the percentage of the absorbance from the reaction containing the test article with respect to the absorbance from vehicle reaction (maximum of urea production).
For testing inhibitory activity over recombinant human arginase II, 10 μl of Tris-HCl solution supplemented with 0.1% BSA containing 1.5 μg/ml recombinant human ARG2 (BPS Bioscience, Cat. No. #71659) was used instead of ARG1.

The next test addresses T2, recombinant human ARG1 (Homo sapiens, UniProt P05089).
T2 construct: purchased R&D System 5868-AR-010
T2 sequence (P05089 1-322): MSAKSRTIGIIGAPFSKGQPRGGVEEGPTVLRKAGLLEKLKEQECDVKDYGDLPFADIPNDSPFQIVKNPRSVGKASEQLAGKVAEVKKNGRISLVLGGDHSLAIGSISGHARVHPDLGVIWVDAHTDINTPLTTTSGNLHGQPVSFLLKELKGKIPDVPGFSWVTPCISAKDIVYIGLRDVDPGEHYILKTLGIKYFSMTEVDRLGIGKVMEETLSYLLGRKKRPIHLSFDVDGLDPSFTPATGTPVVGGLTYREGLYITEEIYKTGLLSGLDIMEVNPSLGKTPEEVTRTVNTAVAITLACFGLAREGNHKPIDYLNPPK
Put plainly: Arginase enzymatic assay in vitro, recombinant human ARG1 (colorimetric urea detection). Type of test: biochemical. The note with it: recombinant human arginase 1; read-out: IC50 Inh rhARG1.
Description: as §1, §2, §3, §4

The target of test [1] is T3, arginase activity in intact BMM-M2 cells (Mus musculus, UniProt Q61176).
T3 construct: endogenous in cells; host or cells: bone-marrow derived macrophages from male C57BL/6 mice, polarised to M2 with IL-4
T3 sequence (Q61176 1-323): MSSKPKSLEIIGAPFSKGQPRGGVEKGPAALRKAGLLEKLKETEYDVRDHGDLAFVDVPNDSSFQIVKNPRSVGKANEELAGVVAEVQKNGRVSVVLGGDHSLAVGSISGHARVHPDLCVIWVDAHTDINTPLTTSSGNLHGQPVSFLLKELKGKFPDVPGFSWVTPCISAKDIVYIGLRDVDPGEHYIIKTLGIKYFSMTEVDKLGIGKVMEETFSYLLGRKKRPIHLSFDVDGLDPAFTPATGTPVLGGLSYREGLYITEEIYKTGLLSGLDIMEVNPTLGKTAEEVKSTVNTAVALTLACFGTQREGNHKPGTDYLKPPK
Put plainly: Cell-based arginase assay: urea production by cultured BMM-M2 cells. The note with it: 10 μM test compound, 24 h; for inhibition at 10 µM: read-out: Inh. urea production @10 μM (%). As to the method:
Murine bone-marrow derived macrophages (BMM) represent a convenient in vitro model that enables differentiation of these cells towards M1 or M2 macrophages. Briefly, male C57BL/6 mice 7-8 weeks old were euthanized by carbon dioxide asphyxiation. Femur and tibiae bones were removed under aseptic conditions and collected in a plate containing sterile ice-cold PBS 1×. After sterilization of bones in 70% ethanol during 1 min, bones were placed into a clean Petri dish containing fresh sterile ice-cold PBS 1×. The ends of each bone were cut and the marrow cavity was flushed using forceps and syringes filled with pre-warmed complete α-MEM growing medium (α-MEM without red phenol (Life Technologies, Cat. No. #41061-029) supplemented with 10% FBS, penicillin and streptomycin). Bone marrow (BM) cells were harvested in a 15 ml clean tube and centrifuged at 400 g for 8 min at RT. Supernatant was discarded and BM pellet was re-suspended in 5 ml Ammonium-Chloride-Potassium (ACK) buffer for 5 minutes at RT to lysis RBC. BM cell suspension was centrifuged at 400 g for 8 min at RT. Supernatant was discarded and BM cell pellet was re-suspended in complete α-MEM growing medium and passed through a 70 μm cell restrainer to eliminate solid contaminates and cellular aggregates. BM cells were seeded in 8 ml of complete α-MEM growing medium supplemented with 100 ng/ml recombinant mouse M-CSF (R&D Systems, Cat. No. #416-ML-050) in 100-mm dishes. BM cells were cultured overnight to get rid of contaminating stromal cells in a humidified incubator with 5% CO2 at 37° C. At the following day, non-adherent cells were collected in a clean 15-ml tube and centrifuged at 400 g for 8 min at RT. Cell pellet was re-suspended in complete α-MEM growing medium and counted using a hemocytometer Neubauer's chamber. Hematopoietic precursor cells were differentiated into BMM in presence of complete α-MEM growing medium supplemented 50 ng/ml M-CSF for 3 days. Finally to polarize BMM towards M2 phenotype, cells were incubated in presence 20 ng/ml of recombinant mouse IL-4 (R&D Systems, Cat. No. #404-ML-010) added to fresh complete α-MEM growing medium supplemented 50 ng/ml M-CSF for 24 h.
At the day of the experiment, BMM-M2 were treated for 24 h with vehicle (DMSO) or compounds of the invention at 1 and 10 μM prepared in fresh complete α-MEM growing medium supplemented 50 ng/ml M-CSF, 20 ng/ml IL-4 and 10 mM L-arginine (Cat. No. #A5006, Sigma Aldrich). At the next day, 70 μl aliquots of each treated culture media (supernatants) were transferred into a clear 96-well plate. Measurements of urea produced by BMM-M2 were performed using the adapted protocol detailed in Example B1. Wells without BMM-M2 containing only treatment media (vehicle) were used to determine the zero cell-derived urea production (blank). All treatments were carried out in triplicates.
The inhibition of urea production was calculated subtracting the absorbance from the blank to the absorbance from all treatments and it was expressed as the percentage of the absorbance from the reaction containing the test article treatment with respect to the absorbance from vehicle treatment (maximum of urea production).

With `NC(CCCCB(O)O)(C(=O)O)C1CCN(C2CCCc3cc(-c4ccccc4)ccc32)CC1` (single isomer, unassigned) [Compound 87, 2-amino-6-borono-2-(1-(6-phenyl-1,2,3,4-tetrahydronaphthalen-1-yl)piperidin-4-yl)hexanoic acid], the IC50 at recombinant human ARG2 and on recombinant human ARG1 was under 500 nM throughout. The inhibition at 10 µM in test [1] is over 25%.
Take `NC(CCCCB(O)O)(C(=O)O)C1CCN(C2CCCc3ccccc32)CC1` (single isomer, unassigned) [Compound 8, 2-amino-6-borono-2-(1-(1,2,3,4-tetrahydronaphthalen-1-yl)piperidin-4-yl)hexanoic acid]: the IC50 at recombinant human ARG2 and at recombinant human ARG1 was under 500 nM each time.
For the compound `NC(CCCCB(O)O)(C(=O)O)C1CCN(C2CCc3cc(Cl)ccc32)C1` (stereo not shown) [Compound 82, 2-amino-6-borono-2-[1-(5-chloroindan-1-yl)pyrrolidin-3-yl]hexanoic acid], the results for the IC50 at recombinant human ARG2 and at recombinant human ARG1 were 500 to 5000 nM and under 500 nM, respectively. In addition, the inhibition at 10 µM in test [1] is over 25%.
For `NC(CCCCB(O)O)(C(=O)O)C1CCN(C2CCc3ccc(F)cc32)CC1` (single isomer, unassigned) [Compound 88, 2-amino-6-borono-2-(1-(6-fluoro-2,3-dihydro-1H-inden-1-yl)piperidin-4-yl)hexanoic acid], the IC50 at recombinant human ARG2 and at recombinant human ARG1 was under 500 nM each time. The inhibition at 10 µM in test [1] is over 25%.
Take `CCCC(c1ccccc1)N1CCC(C(N)(CCCCB(O)O)C(=O)O)CC1` (single isomer, unassigned) [Compound 90, 2-amino-6-borono-2-[1-(1-phenylbutyl)-4-piperidyl]hexanoic acid]: the IC50 on recombinant human ARG2 and on recombinant human ARG1 was 500 to 5000 nM throughout.
Consider `NC(CCCCB(O)O)(C(=O)O)C1CCN(C2Cc3ccccc3C2)CC1` (single isomer, unassigned) [Compound 25, 2-amino-6-borono-2-(1-(2,3-dihydro-1H-inden-2-yl)piperidin-4-yl)hexanoic acid], for which the IC50 on recombinant human ARG2 and on recombinant human ARG1 was over 5000 nM each time.
On to `NC(CCCCB(O)O)(C(=O)O)C1CCN(C2CCc3cc(F)c(F)cc32)CC1` (single isomer, unassigned) [Compound 19, 2-amino-6-borono-2-[1-(5,6-difluoroindan-1-yl)-4-piperidyl]hexanoic acid], for which the IC50 on recombinant human ARG2 and at recombinant human ARG1 was under 500 nM throughout. Also, in test [1], the “Inh. urea production @10 μM (%)” value is recorded as “++ (25% < % inhibition < 15% at 10 μM test compound)”.
For `NC(CCCCB(O)O)(C(=O)O)C1CCN(C2Cc3ccccc3C2)CC1` (single isomer, unassigned) [Compound 24, 2-amino-6-borono-2-(1-(2,3-dihydro-1H-inden-2-yl)piperidin-4-yl)hexanoic acid], the IC50 on recombinant human ARG2 and at recombinant human ARG1 was 500 to 5000 nM in each case. The “Inh. urea production @10 μM (%)” value in test [1] is “++ (25% < % inhibition < 15% at 10 μM test compound)”.
For the compound `NC(CCCCB(O)O)(C(=O)O)C1CCN(C2Cc3ccccc3C2)CC1` (stereo not shown) [Compound 23, 2-amino-6-borono-2-(1-(2,3-dihydro-1H-inden-2-yl)piperidin-4-yl)hexanoic acid], the IC50 on recombinant human ARG2 and at recombinant human ARG1 was over 5000 nM in each case.
As to `CC(c1ccc(F)c(Cl)c1)N1CCC(C(N)(CCCCB(O)O)C(=O)O)CC1` (single isomer, unassigned) [Compound 89, 2-amino-6-borono-2-(1-(1-(3-chloro-4-fluorophenyl)ethyl)piperidin-4-yl)hexanoic acid], the IC50 (usually the point on the concentration scale where inhibition reaches its midpoint) on recombinant human ARG2 was 500 to 5000 nM; at recombinant human ARG1, under 500 nM. Moreover, the “Inh. urea production @10 μM (%)” value in test [1] was “++ (25% < % inhibition < 15% at 10 μM test compound)”.
With `NC(CCCCB(O)O)(C(=O)O)C1CCN(C2CCCc3ccccc32)CC1` (single isomer, unassigned) [Compound 7, 2-amino-6-borono-2-(1-(1,2,3,4-tetrahydronaphthalen-1-yl)piperidin-4-yl)hexanoic acid], the IC50 at recombinant human ARG2 was 500 to 5000 nM; on recombinant human ARG1, under 500 nM.
